In brackets after ≈: the same amount, converted by molar mass. Activity calls are given as the source filed them. The rule behind the calls is not given here. Numbered stars: 1 amine (or outer) side, 2 acyl side, 3 side chain; on linkers, the order of the positions; unused ones are H or OH. Bridge positions count the residues as written; N and C are the ends. Square brackets hold non-standard residues; d marks the D form. Peptide text beside a SMILES is read from it. I, II: the chains in the order shown. X1 = O=C1CC([*:2])C(=O)N1CCCCCC(=O)[*:1]; Dab = NCC[C@H](N)C(=O)O

The subject of assay [1] is Staphylococcus aureus. Nature of the assay: Bactericidal activity against Staphylococcus aureus ATCC 12600 assessed as inhibition of bacterial growth incubated for 18 to 24 hrs. The class given is functional. The following applies: time 18-24 hrs.
Assay [2] in a line: Inhibition of quorum sensing system in Staphylococcus epidermidis ATCC 12228 assessed as downregulation of RNAIII expression level at 0.78 uM incubated for 24 hrs by qRT-PCR analysis. A general note: Quantitative PCR measures a nucleic acid by following its amplification.
The next assay concerns Escherichia coli. Nature of the assay: Bactericidal activity against Escherichia coli ATCC 25922 assessed as inhibition of bacterial growth incubated for 18 to 24 hrs. The class given is functional. Conditions: time 18-24 hrs.
The species entered for a further assay is Homo sapiens. Kind of assay: Binding affinity to AgrC-I extra-loop-II (unknown origin) assessed as gibbs free energy change incubated for 10 mins by isothermal titration calorimetry analysis. (In ITC the heat of successive injections is recorded.)
The subject of assay [3] is Staphylococcus aureus. Nature of the assay: Bactericidal activity against Staphylococcus aureus ATCC 6538p assessed as inhibition of bacterial growth incubated for 18 to 24 hrs. Type of assay: functional. Conditions: time 18-24 hrs.
Assay [4] is described as follows: Binding affinity to AgrC-I extra-loop-I (unknown origin) assessed as change in enthalpy incubated for 10 mins by isothermal titration calorimetry analysis.
A short description of assay [5]: Binding affinity to AgrC-I extra-loop-III (unknown origin) assessed as dissociation constant incubated for 10 mins by isothermal titration calorimetry analysis.
Assay [6] in a line: Binding affinity to AgrC-I extra-loop-II (unknown origin) assessed as dissociation constant incubated for 10 mins by isothermal titration calorimetry analysis.
The next assay concerns Streptococcus mutans. Nature of the assay: Antibacterial activity against Streptococcus mutans ATCC 25175 assessed as inhibition of bacterial growth incubated for 18 to 24 hrs. Type of assay: functional. The following applies: time 18-24 hrs.
In assay [7] the test system is Staphylococcus aureus. Nature of the assay: Inhibition of biofilm formation in Staphylococcus aureus at 0.39 uM incubated for 24 hrs by crystal violet staining based analysis. The class given is functional, organism-based.
Assay [8] in a line: Inhibition of quorum sensing system in Staphylococcus saprophyticus ATCC BAA-750 assessed as downregulation of RNAIII expression level at 0.78 uM incubated for 24 hrs by qRT-PCR analysis.
The subject of assay [9] is Staphylococcus aureus. Kind of assay: Inhibition of biofilm formation in Staphylococcus aureus incubated for 24 hrs by crystal violet staining based microscopic analysis. Type of assay: functional, organism-based.

With `CC[C@H](C)[C@H](NC(=O)CNC(=O)CNC(=O)[C@@H](N)CSC1CC(=O)N(CCCCCC(=O)NCC(=O)N[C@H](C(=O)N[C@@H](CCCCN)C(=O)N[C@@H](CC(N)=O)C(=O)N[C@@H](CC(C)C)C(=O)N[C@@H](Cc2c[nH]c3ccccc23)C(=O)N[C@@H](CCCCN)C(=O)N[C@@H](CCCCN)C(=O)N[C@@H](CCSC)C(=O)N[C@H](C(=O)N[C@@H](CCCCN)C(=O)N[C@@H](CC(C)C)C(=O)N[C@@H](Cc2c[nH]c3ccccc23)C(=O)N[C@@H](Cc2ccc(O)cc2)C(=O)O)[C@@H](C)CC)[C@@H](C)CC)C1=O)C(=O)N[C@@H](CC(N)=O)C(=O)N[C@H]1CCNC(=O)[C@H](CC(C)C)NC(=O)[C@H](CC(C)C)NC(=O)[C@H](Cc2ccccc2)NC(=O)[C@H](C)NC1=O` (some centres not stated) (I: GIKNLWKKMIKLWY-OH / II: H-CGGIN[Dab]AFLL; linker I:N-II:1 via X1; lactam II:6-II:C), the MBC (as a rule, the lowest tested concentration that kills the bacteria rather than only halting them) came to 3.13 µM (≈ 9.4 µg/mL) in the assay on Staphylococcus aureus [1], 12.5 µM (≈ 37.5 µg/mL) in the assay on Escherichia coli and 3.13 µM (≈ 9.4 µg/mL) in the assay on Staphylococcus aureus [3]. Further, the inhibition result in [2] and in [8] was “inactive” throughout. In addition, in the assay filed under Homo sapiens, the deltaG was -16.4 kcal/mol. Also, the deltaH in assay [4] was -4.7 kcal/mol. In addition, the Kd in assay [5] and in [6] was 1 pM each time. Further, the MIC (usually the lowest concentration that inhibits growth of the organism) with Streptococcus mutans was found to be 3.13 µM (≈ 9.4 µg/mL). The inhibition entry in the assay on Staphylococcus aureus [7] and in the assay on Staphylococcus aureus [9] was “Active” each time.
